# Legend:
# Format in all cases: cell-based, human
# let-7a miRNA = assay: pLet7a-Luc luciferase reporter gene assay in AsPC-1 cells
# Source text: Luciferase Reporter Gene Assay: pLet7a-Luc reporter vector contains a let-7a miRNA specific binding site at the 3′ UTR of the firefly (Photinus pyralis) luciferase gene, pMiR-144-Luc reporter vector containing miR-144 miRNA specific binding site at the 3′UTR of the firefly luciferase gene and KRAS-Luc reporter vector containing specific binding sites for let-7 family members at the 3′UTR of the firefly luciferase gene were obtained from Signosis, Inc. (Sunnyvale, Calif.). Human pancreatic cancer cell lines were transfected with the pLet7a-Luc, pMiR-144-Luc and KRAS-Luc reporter vectors separately with Renilla luciferase expressing plasmid pRL-TK (Promega) along with DCAMKL-1, or scrambled siRNA-using siPORT™ NeoFX™ transfection reagent (Ambion, Inc.). Luciferase activity was determined as per the manufacturer's instructions (Dual Luciferase Reporter Assay System; Promega) using a BioTek Synergy HT (Winooski, Vt.) as described herein above. The activity, normalized to Renilla luciferase activity, is presented as relative luciferase units relative to control with ±SEM values. Assays were performed in triplicate wells, and experiments were repeated 3 times.
# DCAMKL-1 [1] = assay: siRNA knockdown of DCAMKL-1 in AsPC-1 pancreatic cancer cells, real-time RT-PCR; conditions: AsPC-1 cells
# Method: (§1) Cell Culture: AsPC-1 and BxPC3 human pancreatic adenocarcinoma cell lines were obtained from the American Type Culture Collection and grown in Dulbecco's modified Eagle medium (DMEM) supplemented with 10% fetal bovine serum and 100 U/mL penicillin-streptomycin in a humidified chamber at 37° C. with 5% CO2.
# Silencer RNA: DCAMKL-1 small interfering RNA (siRNA) (si-DCAMKL-1) sequence targeting the coding region of DCAMKL-1 (accession No. NM_004734; SEQ ID NO:1) ([…]tt (SEQ ID NO:3)) and scrambled siRNAs (si-Scr) not matching any of the human genes were obtained (Ambion Inc, Austin, Tex.) and transfected using siPORT™ NeoFX™ (Ambion, Inc).
# Real-time Reverse Transcription-Polymerase Chain Reaction Analyses: Total RNA isolated from human pancreatic cancer cells or cells sorted from normal mouse pancreas were subjected to reverse transcription with Superscript II RNase H-Reverse Transcriptase and random hexanucleotide primers (Invitrogen, Carlsbad, Calif.). The complementary DNA (cDNA) was subsequently used to perform real-time polymerase chain reaction (PCR) by SYBR chemistry (SYBR Green I; Molecular Probes, Eugene, Oreg.) for specific transcripts using gene specific primers and Jumpstart Taq DNA polymerase (Sigma—Aldrich, St. Louis, Mo.). […] The changes in mRNA were expressed as fold change relative to control with ±SEM value.
# miRNA Analysis: total RNA isolated from human pancreatic cancer cell lines or cells sorted from normal mouse pancreas was subjected to reverse transcription with Superscript II RNase H-Reverse Transcriptase and random hexanucleotide primers (Invitrogen). The cDNA was subsequently used to perform real-time PCR by SYBR chemistry (SYBR Green I; Molecular Probes) for pri-let-7a, pri-miR-144 and pri-miR-200a transcripts using specific primers and Jumpstart Taq DNA polymerase (Sigma—Aldrich). […] The changes in pri-miRNA were expressed as fold change relative to control with ±SEM values.
# DCAMKL-1 [2] = assay: siRNA knockdown of DCAMKL-1 in SW480 cells, real-time RT-PCR and Western blot
# Method: as §1, with “culture. HCT116, HCT116 p21^−/−” for “Culture: AsPC-1”, “SW480” for “BxPC3”, “colon” for “pancreatic”, “Collection (ATCC)” for “Collection”, “eagle's” for “Eagle”
# Silencer RNA. DCAMKL-1 siRNA (si-DCAMKL-1) sequence targeting the coding region of DCAMKL-1 (Accession # NM_004734 (SEQ ID NO:1)) ([…] (SEQ ID NO:3)) and scrambled control siRNAs (si-Scr) not matching any of the human genes were obtained (Ambion Inc., Austin, Tex.) and transfected using Transfectol™ (Ambion Inc.).
# Real-time reverse transcription-PCR analyses. Total RNA isolated either from cells or from human colon cancer cell tumor xenograft samples was subjected to reverse transcription with Superscript™ II RNase H—Reverse Transcriptase and random hexanucleotide primers (Invitrogen, Carlsbad, Calif.). The cDNA was subsequently used to perform Real-time PCR by SYBR chemistry (SYBR® Green I; Molecular Probes) for specific transcripts using gene specific primers and Jumpstart Taq DNA polymerase (Sigma-Aldrich, St. Louis, Mo.). […] The changes in mRNA were expressed as fold change relative to control with ±SEM value.
# miRNA analysis. Total miRNA was isolated using mirVana™ miRNA isolation kit (Ambion Inc.). Total miRNA isolated either from cells or from human colon cancer cell tumor xenograft samples were subjected to reverse transcription with Superscript™ II RNase H—Reverse Transcriptase and random hexanucleotide primers (Invitrogen, Carlsbad, Calif.). The cDNA was subsequently used to perform Real-time PCR by SYBR chemistry (SYBR® Green I; Molecular Probes) for pri-let-7a transcript using specific primers and Jumpstart Taq DNA polymerase (Sigma-Aldrich, St. Louis, Mo.). […] The changes in pri-miRNA were expressed as fold change relative to control with ±SEM value. Primers used are: […]
# Western Blot analysis. HCT116 and SW480 cells were cultured in a 6 well plates to 40% confluency and were transfected with si-DCAMKL-1 or si-Scr for 72 h. Cells or the tumor xenograft samples were lysed and the concentration of protein was determined by BCA protein assay kit (Pierce Biotechnology Inc., Rockford, Ill.). Forty μg of the protein was size separated in a 7.5-15% SDS polyacrylamide gel and transferred onto a nitrocellulose membrane with a semidry transfer apparatus (Amersham-Pharmacia, Piscataway, N.J.). The membrane was blocked in 5% non-fat dry milk for 1 h and probed overnight with a rabbit anti-DCAMKL-1 antibody (Abcam Inc., Cambridge, Mass.) or with rabbit anti-c-Myc antibody (Santa Cruz). Subsequently, the membrane was incubated with anti-rabbit or anti-goat IgG horseradish peroxidase-conjugated antibodies (Amersham-Pharmacia) for 1 h at room temperature. The 82 kDa DCAMKL-1 and 49 kDa c-Myc proteins were detected using ECL™ Western Blotting detection reagents (Amersham-Pharmacia). Actin (43 kDa), used as loading control was identified using a goat polyclonal IgG (Santa Cruz Biotechnology Inc., Santa Cruz, Calif.).
# [3] = real-time RT-PCR, compared to controls
# DCAMKL-1, sequence (O15075 other isoform, or with tags, fused parts or gaps): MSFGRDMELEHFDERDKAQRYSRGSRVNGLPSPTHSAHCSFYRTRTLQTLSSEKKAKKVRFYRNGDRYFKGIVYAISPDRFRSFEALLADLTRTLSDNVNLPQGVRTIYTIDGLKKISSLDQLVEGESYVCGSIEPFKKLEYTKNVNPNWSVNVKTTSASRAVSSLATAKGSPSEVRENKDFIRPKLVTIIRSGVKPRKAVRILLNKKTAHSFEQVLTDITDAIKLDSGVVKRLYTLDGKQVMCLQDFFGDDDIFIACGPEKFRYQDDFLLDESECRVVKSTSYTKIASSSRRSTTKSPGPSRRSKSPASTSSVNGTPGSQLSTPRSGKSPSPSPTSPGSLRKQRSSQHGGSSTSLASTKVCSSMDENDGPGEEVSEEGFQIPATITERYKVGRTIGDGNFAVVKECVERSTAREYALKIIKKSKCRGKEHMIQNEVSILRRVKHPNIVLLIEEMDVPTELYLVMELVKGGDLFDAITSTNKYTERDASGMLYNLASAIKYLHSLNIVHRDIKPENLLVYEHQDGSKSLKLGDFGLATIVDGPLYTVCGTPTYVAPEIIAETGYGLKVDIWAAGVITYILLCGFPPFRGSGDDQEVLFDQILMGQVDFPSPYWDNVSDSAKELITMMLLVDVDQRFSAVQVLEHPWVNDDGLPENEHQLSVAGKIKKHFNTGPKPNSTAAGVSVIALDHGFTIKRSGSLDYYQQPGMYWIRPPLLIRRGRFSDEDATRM
substance,measurement,setting,value
"si-DCAMKL-1: siRNA targeting the coding region of DCAMKL-1 (NM_004734), sequence GGGAGUGAGAACAAUCUAC (SEQ ID NO:3) (chemistry not given here; listed as Homo sapiens)",luciferase activity (let-7a binding site in 3' UTR),let-7a miRNA,dose-dependent reduction
same,E-cadherin expression,DCAMKL-1 [1],upregulation
same,Notch-1 expression,DCAMKL-1 [1],significant and a dose dependent downregulation
same,Slug mRNA expression,DCAMKL-1 [1],downregulation
same,Snail mRNA expression,DCAMKL-1 [1],downregulation
same,Twist mRNA expression,DCAMKL-1 [1],downregulation
same,ZEB1 expression,DCAMKL-1 [1],downregulation
same,ZEB2 expression,DCAMKL-1 [1],downregulation
same,c-Myc expression,DCAMKL-1 [1],significant and a dose dependent downregulation
same,pri-miR-200a expression,DCAMKL-1 [1],upregulation
same,increase in pri-miR-144 miRNA expression,DCAMKL-1 [1]; compared to control and siSCR,2.5 fold
same,reduction of c-Myc mRNA expression,DCAMKL-1 [1]; compared to control and siSCR,50%
same,reduction in KRAS mRNA expression,DCAMKL-1 [1]; compared to control or siSCR,45%
same,reduction in Notch-1 mRNA,DCAMKL-1 [1]; compared to control or siSCR,50%
same,DCAMKL-1 mRNA expression,DCAMKL-1 [1]; compared to siSCR or untreated,decreases
same,DCAMKL-1 protein,DCAMKL-1 [1]; compared to siSCR or untreated,decreases
same,induction of pri-let-7a miRNA,DCAMKL-1 [1]; real-time RT-PCR,3 fold
same,c-Myc mRNA and protein,DCAMKL-1 [2],Reduction
same,reduction in Notch-1 mRNA,DCAMKL-1 [2],> 50%
same,Notch-1 and cleaved Notch-1 protein,DCAMKL-1 [2]; Western blot,dose dependent reduction
same,DCAMKL-1 protein,"DCAMKL-1 [2]; Western blot, 72 h transfection",reduction
same,reduction in DCAMKL-1 mRNA expression,DCAMKL-1 [2]; real-time RT-PCR,> 70%
same,increase in pri-let-7a miRNA,DCAMKL-1 [2]; [3],4 fold
same,increase in pri-miR-144 miRNA,DCAMKL-1 [2]; [3],3 fold
